In patent US9206432B2, “Sulfonylurea-responsive repressor proteins” (priority 2008, dated 2015):

Key:
[1] = test system: lacZ under control of the tetA promoter (PtetA) in E. coli KM3; assay type: cell-based; conditions: L1 hits, SU compounds at 20 μg/ml
[2] = pH 7; cited from earlier work
tet operator (tetO) = test: Electrophoretic gel mobility shift assay (EMSA), operator binding and release by inducer; conditions: ethametsulfuron repressor protein (L7A11) on TetO (FIG. 7)

Compound	potency as activator compared with Harmony® [1]	logP [2]	operator release by inducer (tet operator (tetO))
CCOC(=O)c1ccccc1S(=O)(=O)NC(=O)Nc1nc(Cl)cc(OC)n1 [chlorimuron, Chlorimuron-ethyl, reference compound]	more potent activators than the starting ligand Harmony®		
COC(=O)c1sccc1S(=O)(=O)NC(=O)Nc1nc(C)nc(OC)n1 [Harmony®, Thifensulfuron-methyl]		~0.02	
Cc1c2c(c(O)c3c(O)cccc13)C(=O)[C@]1(O)C(=O)C(C(N)=O)=C(O)[C@@H](N(C)C)[C@@H]1C2 [atc, anhydrotetracycline]			No change in operator release
COc1nc(C)nc(NC(=O)NS(=O)(=O)c2ccccc2Cl)n1 [chlorsulfuron, 2 chloro N ((4 methoxy 6 methy 1,3,5 triazine 2 yl)aminocarbonyl)benzenesulfonamide, reference compound]	more potent activators than the starting ligand Harmony®		
CCOc1nc(NC)nc(NC(=O)NS(=O)(=O)c2ccccc2C(=O)OC)n1 [ethametsulfuron, Ethametsulfuron-methyl, reference compound]	more potent activators than the starting ligand Harmony®		inducer preference for operator release by Es compared to Cs
